The text below walks through data of ChEMBL document CHEMBL6182844, “LC-MS Guided Discovery and Biosynthetic Pathway of Coprisamides E-H, Cinnamic Acid-Containing Metabolites from the Marine Algae-Derived Streptomyces thermolineatus NAK03196” (2025).

≈ marks a conversion by molar mass, not a printed value. Calls of active or inactive are those of the source. No cut-off for these calls is given here.

Common to all, as to details: time 12-16 hrs
The test system of one test is Micrococcus luteus. Description: Antibacterial activity against Micrococcus luteus assessed as inhibition on the growth incubated for 12 to 16 hrs by paper disc diffusion assay. The test is classed as functional, organism-based. (In general: In agar diffusion tests the substance spreads into inoculated agar from a disc or well.)
Test [1] relates to Staphylococcus aureus. Description: Antibacterial activity against methicillin-resistant Staphylococcus aureus ATCC 43300 assessed as inhibition on the growth incubated for 12 to 16 hrs by paper disc diffusion assay. The test is classed as functional, organism-based.
Test [2] concerns Staphylococcus aureus. The test can be described thus: Antibacterial activity against the Staphylococcus aureus 16339 incubated for 12 to 16 hrs by paper disc diffusion assay. The test is classed as functional.
For another test, the system named is Acinetobacter baumannii. The test can be described thus: Antibacterial activity against Acinetobacter baumannii assessed as inhibition on the growth incubated for 12 to 16 hrs by paper disc diffusion assay. The test is classed as functional, organism-based.
In a further test the test system is Pseudomonas aeruginosa. Description: Antibacterial activity against Pseudomonas aeruginosa assessed as inhibition on the growth incubated for 12 to 16 hrs by paper disc diffusion assay. The format is functional, organism-based.
Test [3] has as its system Staphylococcus aureus. Description: Antibacterial activity against Staphylococcus aureus ATCC 29213 assessed as inhibition on the growth incubated for 12 to 16 hrs by paper disc diffusion assay. The test is classed as functional, organism-based.
The next test has as its system Escherichia coli. The test can be described thus: Antibacterial activity against Escherichia coli assessed as inhibition on the growth incubated for 12 to 16 hrs by paper disc diffusion assay. The format is functional, organism-based.
For another test, the system named is Enterococcus faecalis. Description: Antibacterial activity against Enterococcus faecalis assessed as inhibition on the growth incubated for 12 to 16 hrs by paper disc diffusion assay. The test is classed as functional, organism-based.
A further test concerns Klebsiella pneumoniae. Description: Antibacterial activity against Klebsiella pneumoniae assessed as inhibition on the growth incubated for 12 to 16 hrs by paper disc diffusion assay. The test is classed as functional, organism-based.

With `C/C=C/C=C/C=C\c1ccccc1/C=C/C(=O)N[C@H](C)C(=O)N[C@@H]1COC(=O)[C@H](CC(=O)O)NC(=O)[C@H](CNC(=O)[C@@H](N)C(C)C)NC(=O)[C@H](C(C)C)NC(=O)[C@@H](CC(C)C)NC1=O`, the inhibition entry in the test with Micrococcus luteus, in the test on Staphylococcus aureus [1], in the test on Acinetobacter baumannii, in the test on Pseudomonas aeruginosa, in the test on Staphylococcus aureus [3] and in the test with Escherichia coli was “inactive” each time. The inhibition result with Enterococcus faecalis and in the test on Klebsiella pneumoniae was “inactive” throughout. This molecule showed an MIC in the test with Staphylococcus aureus [2] of 890 µg/mL (≈ 997 µM).

As to `CN(C)[C@@H]1C(O)=C(C(N)=O)C(=O)[C@@]2(O)C(O)=C3C(=O)c4c(O)cccc4[C@@](C)(O)[C@H]3C[C@@H]12` [TETRACYCLINE], inhibition of growth with Staphylococcus aureus [2] (MIC) required 10 µg/mL (≈ 22.5 µM).

As a reminder, the MIC is the lowest concentration found to suppress growth.
